# According to patent CN112516145A, “小分子化合物wk369在制备治疗卵巢癌药物中的应用” (East China Normal University, priority 2019, dated 2021):
# pIC50: −log10 of the molar value.
# How the values were obtained:
# [1] = molecular target: T1, BCL6 (Homo sapiens, UniProt P41182); conditions: greater than 50 or even 200; cited from earlier work
# [2] = animal level; cited from earlier work
# [3] = molecular target: T1, BCL6; conditions: cited from earlier work
# [4] = molecular target: T2, BCL6-SMRT interaction (BCL6片段蛋白与多肽SMRT的相互作用) (Homo sapiens, UniProt P41182); test: HTRF assay of inhibition of BCL6 fragment protein - SMRT polypeptide interaction; type: biochemical
# T2 construct: 本发明所需BCL6蛋白N端的BTB/POZ结构域序列为; made in house
# [5] = test system: BCL6 transcriptional repression activity (BCL6的转录抑制活性); test: Luciferase reporter gene assay of BCL6 transcriptional repression (293T cells); type: cell-based; conditions: 24 h
# [6] = test system: ATR; test: qRT-PCR of BCL6 downstream gene ATR in ovarian cancer cells; type: cell-based; conditions: ES-2, H08910PM, SKOV3, 24 h
# [7] = test system: P53; test: qRT-PCR of BCL6 downstream gene P53 in ovarian cancer cells; type: cell-based; conditions: ES-2, H08910PM, SKOV3, 24 h
# [8] = test system: CDKN1A; test: qRT-PCR of BCL6 downstream gene CDKN1A in ovarian cancer cells; type: cell-based; conditions: ES-2, H08910PM, SKOV3, 24 h
# [9] = test system: BCL6-low-expressing ovarian cancer cell line IGROV-1 (BCL6低表达卵巢癌细胞株); test: SRB proliferation assay, BCL6-low ovarian cancer cell line; type: cell-based, human
# [10] = test system: normal cell lines HAF, L02, NCM460, 293T, PNT1A (正常细胞株); test: SRB proliferation assay, normal cell lines; type: cell-based, human; conditions: Fig. 4(C)
# [11] = test system: BCL6-high-expressing ovarian cancer cells ES-2, SKOV3, H08910PM, MCAS, CAOV3, OVCAR8 (BCL6高表达卵巢癌细胞); test: Colony formation assay; type: cell-based, human
# [12] = test system: SKOV3 cells; test: Scratch lateral migration assay, SKOV3; type: cell-based, human; conditions: 1, 5, 10 μM, about 12 h
# [13] = test system: ES-2 cells; test: Scratch lateral migration assay, ES-2; type: cell-based, human; conditions: 1, 5, 10 μM, about 12 h
# [14] = test system: SKOV3 cells; test: Transwell invasion assay, SKOV3; type: cell-based, human
# [15] = test system: ES-2 cells; test: Transwell invasion assay, ES-2; type: cell-based, human
# [16] = test system: ES-2 cells; test: Cell cycle by flow cytometry, ES-2; type: cell-based, human; conditions: ES-2, 24 h
# [17] = test system: SKOV3 cells; test: Cell cycle by flow cytometry, SKOV3; type: cell-based, human; conditions: SKOV3, 24 h
# [18] = test system: CyclinB1, cdc25C, CyclinD1; test: Cell cycle regulatory proteins by electrophoresis (blot), ES-2; type: cell-based, human
# [19] = test system: CyclinB1, cdc25C, CyclinD1; test: Cell cycle regulatory proteins by electrophoresis (blot), SKOV3; type: cell-based, human
# [20] = test system: ES-2 cells; test: Apoptosis by AnnexinV/PI flow cytometry, ES-2; type: cell-based, human; conditions: ES-2, 48 h
# [21] = test system: SKOV3 cells; test: Apoptosis by AnnexinV/PI flow cytometry, SKOV3; type: cell-based, human; conditions: SKOV3, 48 h
# [22] = test system: PARP; test: PARP protein by electrophoresis (blot), ES-2; type: cell-based, human
# [23] = test system: PARP; test: PARP protein by electrophoresis (blot), SKOV3; type: cell-based, human
# [24] = test system: mouse germinal center formation (小鼠生发中心的形成); test: Mouse germinal center formation model; type: in vivo; conditions: 50mg/kg/d, intraperitoneal, 12 days
# [25] = test system: SKOV3 tumor (SKOV3肿瘤); test: SKOV3 subcutaneous xenograft in nude mice, tumor growth; type: in vivo, human SKOV3 cells in nude mouse; conditions: intraperitoneal once daily, about 21 days
# [26] = test system: BCL6 downstream genes ATR, P53, CDKN1A (BCL6下游基因); test: qPCR of BCL6 downstream genes in SKOV3 xenograft; type: in vivo, human SKOV3 cells in nude mouse
# [27] = test system: Ki67; test: Immunohistochemistry of Ki67 in SKOV3 xenograft; type: in vivo, human SKOV3 cells in nude mouse
# [28] = test system: ES-2 cells; test: ES-2-luc ovarian cancer intraperitoneal metastasis mouse model; type: in vivo, human ES-2 cells in mouse; conditions: 50mg/kg
# [29] = mouse, in vivo
# [30] = Body weight, behaviour and organ HE staining in SKOV3 xenograft mice
# [31] = Behaviour and adverse reactions in ES-2 intraperitoneal metastasis mice; conditions: 50mg/kg, continuous dosing, 30 days
# [32] = test system: patients with platinum-sensitive recurrent ovarian cancer (铂敏感的复发型卵巢癌患者); conditions: clinical phase II and III; cited from earlier work
compound,measurement,setting,value
O=C(O)CC(C(=O)O)N1C(=O)C(=C2C(=O)Nc3ccc(Br)cc32)SC1=S (stereo not shown) [79-6],concentration exerting function at molecular and cellular level,[1],> 50 µM
CNC(=O)COc1cc2cc(Nc3nc(N4C[C@H](C)C[C@H](C)C4)ncc3Cl)ccc2n(C)c1=O [BI3802],absorption,[2],很难被吸收
same,biological activity at animal level,[3],生物活性差
C[C@@H]1CN(c2ncc(F)c(Nc3ccc4oc(=O)ccc4c3)n2)C[C@H](C)N1 [WK369],pIC50,"[4]; 6His-SMRT 200 nM, BCL6-GST 6.25 nM, room temperature overnight, read-out: half-maximal inhibitory concentration (IC50)",6.50
same,fold improvement over FX1 in inhibiting BCL6 fragment protein - SMRT interaction,[4]; WK369 versus positive compound FX1,~120 fold
same,BCL6 transcriptional repression activity at 20 μM,[5]; 20 μM,完全消除
same,inhibition of BCL6 transcriptional repression activity,"[5]; concentration series, compared with positive compound","浓度依赖性抑制BCL6的转录抑制活性,效果显著优于阳性化合物"
same,upregulation of ATR expression,"[6]; 1, 5, 10, 20 μM",几倍至十几倍
same,upregulation of ATR expression compared with FX1,[6]; FX1 20 μM,更为显著地上调
same,upregulation of P53 expression,"[7]; 1, 5, 10, 20 μM",几倍至十几倍
same,upregulation of P53 expression compared with FX1,[7]; FX1 20 μM,更为显著地上调
same,upregulation of CDKN1A expression,"[8]; 1, 5, 10, 20 μM, highest",最高可上调几十倍
same,upregulation of CDKN1A expression compared with FX1,[8]; FX1 20 μM,更为显著地上调
same,pIC50,"[9]; BCL6-low-expressing ovarian cancer cells (IGROV-1), 72 h, read-out: half-maximal proliferation inhibition activity",~4.80
same,difference in half-maximal proliferation inhibition activity between BCL6-high and BCL6-low ovarian cancer cell lines,[9]; Fig. 4(D),具有显著性差异
same,difference in half-maximal proliferation inhibition activity between human ovarian cancer and human normal cell lines,[10],具有显著性差异
same,inhibition of colony formation compared with FX1,[11]; BCL6-high-expressing lines,显著优于阳性化合物FX1
same,inhibition of colony formation,"[11]; BCL6-high-expressing lines, one week",很显著的抑制效果
same,"inhibition of colony formation, BCL6-high compared with BCL6-low ovarian cancer cell lines",[11]; compared with BCL6-low-expressing line,对BCL6高表达卵巢癌细胞株的抑制效果更为明显
same,inhibition of migration,[12],浓度依赖性地抑制
same,inhibition of migration,[13],浓度依赖性地抑制
same,number of invading cells,"[14]; SKOV3, 1 μM, 12-24 h",已显著减少
same,cells that invade,"[14]; SKOV3, 10 μM, 12-24 h",只有极少数的细胞发生侵袭
same,inhibition of invasion,"[14]; SKOV3, high concentration (FX1 10 μM), WK369 1, 5, 10 μM",显著抑制
same,number of invading cells,"[15]; ES-2, 1 μM, 12-24 h",已显著减少
same,cells that invade,"[15]; ES-2, 10 μM, 12-24 h",只有极少数的细胞发生侵袭
same,inhibition of invasion,"[15]; ES-2, high concentration (FX1 10 μM), WK369 1, 5, 10 μM",显著抑制
same,cell cycle arrest at G2M phase,[16],浓度依赖性地诱导
same,cell cycle arrest at G2M phase,[17],浓度依赖性地诱导
same,CyclinB1 expression,[18],显著下调
same,CyclinD1 expression,[18],显著下调
same,cdc25C expression,[18],显著下调
same,CyclinB1 expression,[19],显著下调
same,CyclinD1 expression,[19],显著下调
same,cdc25C expression,[19],显著下调
same,induction of apoptosis compared with positive compound,[20],更显著地诱导
same,induction of apoptosis compared with positive compound,[21],更显著地诱导
same,full-length PARP protein,[22],显著下调
same,truncated PARP protein,[22],上调
same,full-length PARP protein,[23],显著下调
same,truncated PARP protein,[23],上调
same,decrease in germinal center B cell proportion compared with positive compound,[24],下降比例更为显著
same,inhibition of mouse germinal center formation,[24],均能抑制小鼠生发中心的形成
same,inhibition of tumor growth compared with FX1 (50mg/kg),[25]; 25mg/kg,显著优于阳性化合物FX1
same,"inhibition of tumor growth, 50mg/kg compared with 25mg/kg",[25]; 50mg/kg vs 25mg/kg,效果显著优于本发明化合物WK36925mg/kg的给药剂量
same,tumor proliferation,[25]; 50mg/kg,肿瘤增殖非常缓慢
same,inhibition of tumor growth,[25]; 25 and 50mg/kg,有效抑制肿瘤的生长
same,upregulation of BCL6 downstream genes in vivo compared with positive compound,[26],更好地上调
same,expression of tumor proliferation marker Ki67,[27],显著降低
same,survival rate of mice,[28],有效提高
same,intraperitoneal spread and metastasis,[28]; 30 days,有效抑制
same,tumor growth (bioluminescence),[28]; 30 days,显著降低
same,"number of tumor nodules on the surface of abdominal organs (liver, spleen, kidney, intestine, ovary)","[28]; 30 days, compared with control group",明显减少
same,abnormal behaviour and adverse reactions,[29],并未发现小鼠异常行为和不良反应
same,body weight change compared with blank control,[29],没有明显变化
same,"toxicity to major organs (heart, liver, spleen, lung, kidney), HE staining",[30],没有明显毒性
same,toxicity,[31],没有明显毒性
O=C(c1cc(Cc2n[nH]c(=O)c3ccccc23)ccc1F)N1CCN(C(=O)C2CC2)CC1 [奥卡帕尼],overall survival (OS),[32],并不能延长
